This is an account of results in US8178506B2, “Oligomeric compounds and compositions for use in modulation of small non-coding RNAs” (Regulus Therapeutics Inc., priority 2003, dated 2012).

For data set [1], the system named is HeLa cells. The data set can be described thus: Cell cycle assay in HeLa cells. The conditions noted are these: for phase of the cell cycle in which cells arrest or delay: HeLa, 150 nM. The class given is cell-based, human.
Data set [2] deals with A549 cells. The data set can be described thus: Cell cycle assay in A549 cells. The class given is cell-based, human. The conditions noted are these: A549, 25-, 50-, 100- or 150 nM, 24 hours. Here is the method: In accordance with the present invention, certain oligomeric compounds targeting miRNAs were selected for dose response studies. Using the cell cycle assay described above, the cell cycle profiles of HeLa or A549 cells treated with varying concentrations of oligomeric compounds of the present invention were assessed.
Concomittent decreases in the percentage of cells in G1-phase of the cell cycle and increases in the percentage of hypodiploid (subG1) cells were also observed.
In a further study, A549 cells were treated with 25-, 50-, 100- or 150 nM of the oligomeric compounds ISIS Numbers 338637 (SEQ ID NO: 464) targeted against mir-96, and ISIS 338769 (SEQ ID NO: 596) targeted against mir-130b, ISIS 338836 (SEQ ID NO: 663) targeted against mir-23a, and ISIS 340350 (SEQ ID NO: 855) targeted against mir-95 (Mourelatos). Cells treated with increasing concentrations of oligomeric compounds were compared to untreated cells, to assess the dose-responsiveness of the observed delay or arrest. The random-mer ISIS 29848 was used as a negative control. Cells were prepared for flow cytometry 24-hours after oligonucleotide treatment. Results of these dose response studies are shown in Table 34, where data are expressed as percentage of cells in each phase relative to the untreated control cells in that phase.

Data set [3] relates to Glut4. Briefly: Glut4 mRNA expression in adipocytes (real-time PCR). The class given is cell-based, human. The conditions noted are these: differentiating adipocytes transfected with oligomeric compound. (Quantitative PCR measures a nucleic acid by following its amplification.)
Data set [4] has as its system HuVECs. Briefly: Endothelial tube formation assay in HuVECs. The conditions noted are these: for % Activity Relative to UTC (tube formation): 75 nM oligomeric compound; for tube formation: 75 nM.
The test system of data set [5] is aP2. The data set can be described thus: aP2 mRNA expression in adipocytes (real-time PCR). The class given is cell-based, human. The conditions noted are these: differentiating adipocytes transfected with oligomeric compound.
The subject of data set [6] is PPARγ. Briefly: PPARγ mRNA expression in adipocytes (real-time PCR). The class given is cell-based, human. The conditions noted are these: differentiating adipocytes transfected with oligomeric compound.
Data set [7] has as its system BJ, B16-F10, T47D, T47Dp53 and HeLa cells. The data set can be described thus: Cell cycle assay (propidium iodide flow cytometry), cell line panel. The class given is cell-based. The conditions noted are these: 150 nM oligomeric compound, 4.5 μg/ml LIPOFECTIN, after 72 hours, propidium iodide flow cytometry.
Data set [8] deals with HSL. Briefly: HSL mRNA expression in adipocytes (real-time PCR). It is filed as cell-based, human. The conditions noted are these: differentiating adipocytes transfected with oligomeric compound.
Data set [9] concerns adipocytes. Briefly: Triglyceride accumulation assay in adipocytes. The conditions noted are these: differentiating adipocytes transfected with oligomeric compound. The class given is cell-based, human.
The test system of data set [10] is PEPCK-c. The data set can be described thus: PEPCK-c mRNA expression in HepG2 cells. It is filed as cell-based, human. The conditions noted are these: 100 nM; for decrease in PEPCK-c mRNA: HepG2, basal (no insulin).
Data set [11] has as its system IL-12 mRNA. Briefly: IL-12 mRNA in LPS-activated primary murine macrophages. The class given is cell-based, mouse. The conditions noted are these: normalized to LPS-treated cells without oligomeric compound. Here is the method:
To investigate the role of miRNAs in the immune response, oligomeric compounds of the present invention targeting miRNAs were tested for their effects upon lipopolysaccharide (LPS)-activated primary murine macrophages. Macrophages participate in the immune response, for example, in the recognition and phagocytosis of microorganisms, including bacteria. Interferon-gamma (IFN-gamma) released by helper T cells is one type of signal required for macrophage activation, and LPS can serve as an additional stimulus. LPS is a component of the gram-negative bacterial cell wall and acts as an agonist for toll-like receptor 4 (TLR4), the primary LPS receptor expressed by macrophages. The proinflammatory cytokines interleukin-12 (IL-12) and interleukin-6 (IL-6) are induced by LPS treatment of macrophages, thus the expression of the mRNAs encoding these cytokines was used to evaluate the response of macrophages to LPS following treatment with oligomeric compounds targeting miRNAs.
Macrophages were isolated as follows. Female C57B1/6 mice (Charles River Laboratories, Wilmington, Mass.) were injected intraperitoneally with 1 ml 3% thioglycollate broth (Sigma-Aldrich, St. Louis, Mo.), and peritoneal macrophage cells were isolated by peritoneal lavage 4 days later. The cells were plated in 96-well plates at 40,000 cells/well for one hour in serum-free RPMI adjusted to contain 10 mM HEPES (Invitrogen Life Technologies, Carlsbad, Calif.), allowed to adhere, then non-adherent cells were washed away and the media was replaced with RPMI containing 10 mM HEPES, 10% FBS and penicillin/streptomycin (“complete” RPMI; Invitrogen Life Technologies, Carlsbad, Calif.).
Oligomeric compounds were introduced into the cells using the non-liposomal transfection reagent FuGENE 6 Transfection Reagent (Roche Diagnostics Corp., Indianapolis, Ind.). Oligomeric compound was mixed with FuGENE 6 in 1 mL of serum-free RPMI to achieve a concentration of 10 μL FuGENE per 1000 nM oligomeric compound. The oligomeric compound/FuGENE complex was allowed to form at room temperature for 20 minutes. This mixture was diluted to the desired concentration of oligomeric compound by the addition of the appropriate volume of complete RPMI. The final ratio of FuGENE 6 to oligomeric compound was 1 μL of FuGENE 6 per 100 nM oligomeric compound. A volume of 100 μL of oligomeric compound/FuGENE/RPMI was added to each well of the 96-well plate in which the macrophages were cultured. Each oligomeric compound treatment was repeated in triplicate.
Following oligomeric compound treatment, cells were stimultated with LPS. Cells were cultured in the presence of the transfection complex for approximately 24 to 28 hours at 37° C. and 5% CO2, after which the medium containing the transfection complex was removed from the cells, and complete RPMI containing 100 ng/mL LPS (Sigma-Aldrich Corp., St. Louis, Mo.) was added to the cells for a period of approximately 24 hours. Control samples included (1) cells receiving no oligomeric compound, stimulated with LPS and (2) cells receiving neither oligomeric compound nor LPS treatment.
In another embodiment, following oligomeric compound treatment, cells were first activated by IFN-gamma, to amplify the response to LPS. Cells were cultured in the presence of the transfection complex for approximately 24 hours at 37° C. and 5% CO2, at which point the medium containing the transfection complex was removed from the cells, and complete RPMI containing 100 ng/mL recombinant mouse IFN-gamma (R&D Systems, Minneapolis, Minn.) was added to the cells. After the 4 hour treatment with INF-gamma, cells were treated with 100 ng/mL LPS for approximately 24 hours. Control samples included (1) cells receiving no oligomeric compound, stimulated with LPS and (2) cells receiving neither oligomeric compound nor LPS treatment. […]

[12] abbreviates: HeLa cells, 150 nM oligomeric compound, 24 hours, relative to untreated control (UTC = 100).
[13] abbreviates: HeLa cells, 150 nM oligomeric compound, 48 hours after treatment, relative to untreated control (UTC=100).

In the oligonucleotide strings, read from the 5' end, every base follows the letter of its sugar. An asterisk marks phosphorothioate; unmarked linkages are phosphodiester. Other units and linkages are bracketed, terminal groups are in braces. A string of capitals states the bases alone. e = 2'-O-(2-methoxyethyl) (MOE); [5mC] = 5-methylcytosine

On to “ISIS 338836: SEQ ID NO: 663, targeted against mir-23a (TCCTCGGTGGCAGAGCTCAG; all 2'-MOE, all phosphorothioate, methylation of C not given here)”, for which the “phase of the cell cycle in which cells arrest or delay” value is “G1-phase” in data set [1] (24 hours) and “S-phase” in data set [1] (48 hours). Further, the “cell cycle delay or arrest (G2/M), dose response” value in data set [2] is listed as “dose-responsive delay or arrest”.
For “327909 (antisense e[5mC]*e[5mC]*e[5mC]*eA*eA*e[5mC]*eA*eA*e[5mC]*eA*eT*eG*eA*eA*eA*e[5mC]*eT*eA*e[5mC]*e[5mC]*eT*eA) [compound 327909]”, the “GLUT4 mRNA” value in [3] is recorded as 132 percentage of untreated control (UTC). For the same substance, the “% Activity Relative to UTC (tube formation)” value (“% Activity Relative to UTC” below) in data set [4] (Table 57) is 96.6%. Also, the “AP2 mRNA” value in data set [5] is given as 88 percentage of untreated control (UTC). In [6], the “PPAR gamma mRNA” value was 96 percentage of untreated control (UTC). Further, in data set [7], the “G1 (percentage of cells in phase of the cell cycle)” value came out at 52.6%, the “G2/M (percentage of cells in phase of the cell cycle)” value is 17.3%, the “S (percentage of cells in phase of the cell cycle)” value was 30.1% and the “SubG1 (percentage of cells in phase of the cell cycle)” value worked out at 7.9%. Moreover, the “aneuploid (percentage of cells)” value in data set [7] came out at 16.3%. Moreover, the “HSL mRNA” value in data set [8] is 130 percentage of untreated control (UTC). Further, in data set [9], the “TG (triglyceride accumulation)” value is 132 percentage of untreated control (UTC).
As to “CGCGTACCAAAAGTAATAATG (anti-miR; chemistry not fully specified) [ISIS 327886]”, the “decrease in PEPCK-c mRNA” value in data set [10] is listed as 39%. Further, the tube formation result in data set [4] is listed as “suppressed tube formation”.
“327908 (antisense e[5mC]*eA*eA*eT*eG*e[5mC]*eA*eA*e[5mC]*eT*eA*e[5mC]*eA*eA*eT*eG*e[5mC]*eA*e[5mC]) [compound 327908]”: in data set [1] (setting [12]), the “% cells aneuploid” value is reported as 114%, the “% cells in cell cycle phase G1” value was found to be 98%, the “% cells in cell cycle phase G2/M” value is given as 106% and the “% cells in cell cycle phase S” value is listed as 99%. The “% cells in cell cycle phase subG1” value in [1] (setting [12]) is 138%. Also, in data set [1] (setting [13]), the “% cells in cell cycle phase: G1” value was determined as 99%, the “% cells in cell cycle phase: G2/M” value came out at 105%, the “% cells in cell cycle phase: S” value worked out at 98% and the “% cells in cell cycle phase: aneuploid” value amounted to 93%. For the same substance, the “% cells in cell cycle phase: subG1” value in [1] (setting [13]) stood at 61%. In [4] (Table 57), the “% Activity Relative to UTC” value was determined as 103.5%. Also, in [7], the “G1 (percentage of cells in phase of the cell cycle)” value was 55.4%, the “G2/M (percentage of cells in phase of the cell cycle)” value came to 15.3%, the “S (percentage of cells in phase of the cell cycle)” value amounted to 29.2% and the “SubG1 (percentage of cells in phase of the cell cycle)” value is given as 5.6%. Besides, in data set [7], the “aneuploid (percentage of cells)” value is listed as 13.1%.
For the substance “327883 (antisense e[5mC]*eA*eG*eA*eA*e[5mC]*eT*eT*eA*eG*e[5mC]*e[5mC]*eA*e[5mC]*eT*eG*eT*eG*eA*eA) [compound 327883]”, the “IL-12 mRNA expression, −IFN % UTC” value in data set [11] (300 nM oligomeric compound and LPS, no IFN-gamma pretreatment, single experiment) is 266 % UTC. In addition, the “IL-12 mRNA expression, +IFN % UTC” value in [11] (300 nM oligomeric compound, stimulation with IFN-gamma and LPS, average of 2 experiments) worked out at 39 % UTC. For the same substance, in data set [4] (Table 56), the “% Activity Relative to UTC” value is given as 92.9%.
On to “GAGACCCAGTAGCCAGATGTAGCT (chemistry not given here) [ISIS 327920]”, for which the “reduction of PEPCK-c mRNA expression” value in data set [10] (HepG2, 1 nM insulin) is on record as 41%. The “decrease in PEPCK-c mRNA” value in data set [10] was 48%. The tube formation result in data set [4] is given as “suppressed tube formation”.
Turning to “CAGTGAATTCTACCAGTGCCATA (anti-miR; chemistry not fully specified) [ISIS 327899]”, the “decrease in PEPCK-c mRNA” value in data set [10] is 58%. For the same substance, in [4], the tube formation result is “suppressed tube formation”.
